From patent US11420977B2, “Late SV40 (LSF) inhibitors” (Trustees of Boston University, priority 2018, dated 2022)

What was measured:
Format in all cases: cell-based
SNU-423 cells = test: MTS cell proliferation assay, SNU-423; conditions: Homo sapiens, 120 hrs incubation
Procedure: (§1) Cell lines and culture conditions: Human colon cancer cells Caco-2, HT29 and HCT15, human pancreatic cancer cells BxPC3, CFPAC-1, and CAPAN-2, liver cancer cells SNU423 and kidney cells HEK293, were obtained from American Type Culture Collection (Rockville, USA). HeLa, DLD1, U937, THP-1, and NIH3T3 cells were obtained from ATCC. Huh7 cells were obtained from (Japanese Cancer Resources Bank). HeLa cells, Huh7, DLD1 and NIH-3T3 cells were cultured in DMEM (Dulbecco's modification of Eagle's Medium; Corning) supplemented with 10% Fetal Bovine Serum (FBS; Invitrogen) and 10% Fetal Calf Serum (FCS; Atlanta Biologicals) respectively. U937, BxPC3, HCT15, SNU423 and THP-1 cells were grown in RPMI-1640 (Roswell Park Memorial Institute; Corning) supplemented with 10% Fetal Bovine Serum (FBS; Invitrogen). CFPAC-1 cells were cultured in Iscove's Modified Dulbecco's Medium (ATCC) supplemented with 10% FBS. CAPAN-2 and HT29 cells were cultured in McCoy's 5a medium supplemented with 10% FBS. Caco2 and HEK293 cells were grown in Eagle's Minimum Essential Medium (ATCC) with final 20% FBS concentration. All cells were maintained at 37° C. in 5% CO2 at constant 70% humidity.
(§2) MTS cell proliferation assay: Cells were detached from the plates using trypsin (0.25% for 3 mins, ATCC) and counted using a hemocytometer and were plated at 3000-1500 cells per well, in a 96-well format. The cells were seeded in the inner wells of 96 well plates, and media was added to the outer wells (blank). For NIH-3T3, 1500 cells were seeded in the inner wells of 96-well plates, and after 20 hours cells were treated with compound or DMSO (vehicle control) at appropriate concentrations (DMSO at final concentration of 1%). For other adherent cells 3000 HeLa, BxPC3, CFPAC-1, CAPAN-2, HEK293, HCT15, HT29, CaCo2, DLD1, Huh7 or SNU423 cells were seeded in in each well approximately 20 hrs prior to the treatment. For U937 and THP-1 suspension cells, 2500 cells were added to the wells of a 96-well plate on the day of treatment. After a 72-hour (or 120 hrs for BxPC3, CAPAN-2, SNU423) incubation with compound or vehicle, cell growth was assessed via the Promega CellTiter 96® AQueous One Solution Cell Proliferation Assay, a colorimetric method to determine the number of viable cells. 20 μL of the CellTiter 96® AQueous One Solution Reagent was added directly into cultured wells and incubated for approximately one hour, after which the absorbance at 490 nm was read with a 96-well plate reader (Opys MR Microplate Reader). GI50 values were determined from plots of the percentage of compound-treated cell growth to vehicle cell growth vs. compound concentration (GraphPad Prism; non-linear regression, log inhibitor verse normalized response with variable slope).

NIH 3T3 cells = test: MTS cell proliferation assay, NIH 3T3; conditions: Mus musculus, NIH3T3, 72-hour incubation
Procedure: as §1, with “All cells were maintained at 37° C. in 5% CO2 at constant 70% humidity.” left out
(§3) MTS cell proliferation assay: Cells were detached from the plates using trypsin (0.25% for 3 mins, ATCC) and counted using a hemocytometer and were plated at 3000-1500 cells per well, in a 96-well format. […] After a 72-hour (or 120 hrs for BxPC3, CAPAN-2, SNU423) incubation with compound or vehicle, cell growth was assessed via the Promega CellTiter 96® AQueous One Solution Cell Proliferation Assay, a colorimetric method to determine the number of viable cells. 20 μL of the CellTiter 96® AQueous One Solution Reagent was added directly into cultured wells and incubated for approximately one hour, after which the absorbance at 490 nm was read with a 96-well plate reader (Opys MR Microplate Reader). GI50 values were determined from plots of the percentage of compound-treated cell growth to vehicle cell growth vs. compound concentration (GraphPad Prism; non-linear regression, log inhibitor verse normalized response with variable slope).

HuH7 cells = test: MTS cell proliferation assay, HuH7; conditions: Homo sapiens, Huh-7, 72-hour incubation
Procedure: as §1, §2

HeLa cells = test: MTS cell proliferation assay, HeLa; conditions: Homo sapiens, 72-hour incubation
Procedure: as §1, with “All cells were maintained at 37° C. in 5% CO2 at constant 70% humidity.” left out
as §3

| GI50 (SNU-423 cells) [nM] | GI50 (HuH7 cells) [nM] | GI50 (HeLa cells) [nM] | Compound | GI50 (NIH 3T3 cells) [nM] |
| --- | --- | --- | --- | --- |
| 251 | 158 | 300 | CCOc1cc(N(C)C)ccc1[C@@H]1CC(=O)Nc2cc3c(cc21)OCO3 [(R)-FQI-34] | 5800 |
| 60 | 70 | – | CCOc1cc(N(C)C)ccc1[C@H]1CC(=O)Nc2cc3c(cc21)OCCO3 [(S)-FQI-37] | – |
| 50 | 56 | 3800 | CCOc1cc(N(C)C)ccc1[C@H]1CC(=O)Nc2cc3c(cc21)OCO3 [(S)-FQI-34] | 590 |
